This assay deals with P70S6K (T412E mutant) (Homo sapiens (Human), UniProt P23443, T412E). Put plainly: P70S6K enzyme assay. Particulars: read-out: IC50 p70S6K. The assay is classed as biochemical. The method, then: P70S6K inhibitor compounds are diluted and plated in 96 well plates. […] The reaction is incubated for 90 min at 25° C., before the addition of 10 mM EDTA to stop the reaction. The proportion of substrate and product (phosphorylated) peptide is analysed on a Caliper Life Sciences Lab Chip 3000, using a pressure of −1.4 psi, and upstream and downstream voltages of −3000 and −700 respectively. Product peaks are resolved before substrate peaks on the resulting chromatograms.
P70S6K (T412E mutant), sequence (P23443 whole entry T412E): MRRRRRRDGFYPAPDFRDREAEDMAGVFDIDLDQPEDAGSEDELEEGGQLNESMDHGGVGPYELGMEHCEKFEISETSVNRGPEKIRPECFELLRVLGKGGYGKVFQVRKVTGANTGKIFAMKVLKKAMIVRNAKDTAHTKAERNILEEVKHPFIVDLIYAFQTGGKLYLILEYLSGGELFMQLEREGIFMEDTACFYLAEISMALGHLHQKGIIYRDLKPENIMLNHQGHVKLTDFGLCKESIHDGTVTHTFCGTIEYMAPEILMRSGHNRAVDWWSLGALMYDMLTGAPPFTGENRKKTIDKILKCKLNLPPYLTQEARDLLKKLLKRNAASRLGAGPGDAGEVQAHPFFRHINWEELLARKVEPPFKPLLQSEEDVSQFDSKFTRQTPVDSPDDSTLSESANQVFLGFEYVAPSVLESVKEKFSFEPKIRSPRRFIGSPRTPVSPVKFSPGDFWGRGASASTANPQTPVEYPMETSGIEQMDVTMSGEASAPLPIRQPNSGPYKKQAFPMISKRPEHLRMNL

Turning to `Cn1c(-c2ccc(F)c(C(F)(F)F)c2)cnc1C1CCN(c2ncnc(N)c2Br)CC1` [Compound 2, 5-Bromo-6-{4-[5-(4-fluoro-3-trifluoromethyl-phenyl)-1-methyl-1H-imidazol-2-yl]-piperidin-1-yl}-pyrimidin-4-ylamine], the IC50 (commonly the point on the concentration scale where inhibition reaches its midpoint) is 57 nM. As for `FC(F)(F)c1cccc(-c2c[nH]c(C3CCN(c4ccncc4Br)CC3)n2)c1` [Compound 5, 3-bromo-4-(4-{4-[3-(trifluoromethyl)phenyl]-1H-imidazol-2-yl}piperidin-1-yl)pyridine], the IC50 was found to be 315 nM. Regarding `Cn1cc(-c2ccc(F)c(C(F)(F)F)c2)nc1C1CCN(c2cc(N)ncn2)CC1` [Compound 12, 6-{4-[4-(4-Fluoro-3-trifluoromethyl-phenyl)-1-methyl-1H-imidazol-2-yl]-piperidin-1-yl}-pyrimidin-4-ylamine], the IC50 came out at 87 nM. Regarding `Cn1cc(-c2ccc(F)c(C(F)(F)F)c2)nc1C1CCN(c2ncnc(N)c2-c2ccc(C(F)(F)F)cc2)CC1` [Compound 16, 6-{4-[4-(4-Fluoro-3-trifluoromethyl-phenyl)-1-methyl-1H-imidazol-2-yl]-piperidin-1-yl}-5-(4-trifluoromethyl-phenyl)-pyrimidin-4-ylamine], the IC50 is 21 nM. In the case of `Cn1cc(-c2ccc(F)c(C(F)(F)F)c2)nc1C1CCN(c2ncnc(N)c2-c2ccccc2C#N)CC1` [Compound 18, 2-(4-Amino-6-{4-[4-(4-fluoro-3-trifluoromethyl-phenyl)-1-methyl-1H-imidazol-2-yl]-piperidin-1-yl}-pyrimidin-5-yl)-benzonitrile] it was 250 nM; in that of `Cn1cc(-c2ccc(F)c(C(F)(F)F)c2)nc1C1CCN(c2ncnc(N)c2-c2ccccc2)CC1` [Compound 21, 6-{4-[4-(4-Fluoro-3-trifluoromethyl-phenyl)-1-methyl-1H-imidazol-2-yl]-piperidin-1-yl}-5-phenyl-pyrimidin-4-ylamine], 3.7 nM. For `Cn1cc(-c2ccc(F)c(C(F)(F)F)c2)nc1C1CCN(c2ncnc(N)c2-c2cccc(F)c2)CC1` [Compound 22, 5-(3-Fluoro-phenyl)-6-{4-[4-(4-fluoro-3-trifluoromethyl-phenyl)-1-methyl-1H-imidazol-2-yl]-piperidin-1-yl}-pyrimidin-4-ylamine] the value was 1.6 nM. In the case of `Cn1cc(-c2ccc(F)c(C(F)(F)F)c2)nc1C1CCN(c2ncnc(N)c2-c2ccccc2F)CC1` [Compound 23, 5-(2-Fluorophenyl)-6-{4-[4-(4-fluoro-3-trifluoromethyl-phenyl)-1-methyl-1H-imidazol-2-yl]-piperidin-1-yl}-pyrimidin-4-ylamine] it was 3 nM; in that of `Cn1cc(-c2ccc(F)c(C(F)(F)F)c2)nc1C1CCN(c2ncnc(N)c2-c2ccccc2Cl)CC1` [Compound 24, 5-(2-Chlorophenyl)-6-{4-[4-(4-fluoro-3-trifluoromethyl-phenyl)-1-methyl-1H-imidazol-2-yl]-piperidin-1-yl}-pyrimidin-4-ylamine], 5.3 nM. Take `Cn1cc(-c2ccc(F)c(C(F)(F)F)c2)nc1C1CCN(c2ncnc(N)c2-c2ccc(N3CCOCC3)nc2)CC1` [Compound 25, 6-{4-[4-(4-Fluoro-3-trifluoromethyl-phenyl)-1-methyl-1H-imidazol-2-yl]-piperidin-1-yl}-5-(6-morpholin-4-yl-pyridin-3-yl)-pyrimidin-4-ylamine]: the IC50 stood at 190 nM. For `Cn1cc(-c2ccc(F)c(C(F)(F)F)c2)nc1C1CCN(c2ncnc(N)c2-c2ccc(N3CCNCC3)nc2)CC1` [Compound 26, 6-{4-[4-(4-Fluoro-3-trifluoromethyl-phenyl)-1-methyl-1H-imidazol-2-yl]-piperidin-1-yl}-5-(6-piperazin-1-yl-pyridin-3-yl)-pyrimidin-4-ylamine] the value was 1000 nM; for `Cn1cc(-c2ccc(F)c(C(F)(F)F)c2)nc1C1CCN(c2ncnc(N)c2-c2ccc(F)nc2)CC1` [Compound 27, 5-(6-Fluoro-pyridin-3-yl)-6-{4-[4-(4-fluoro-3-trifluoromethyl-phenyl)-1-methyl-1H-imidazol-2-yl]-piperidin-1-yl}-pyrimidin-4-ylamine], 3 nM; for `Cn1cc(-c2ccc(F)c(C(F)(F)F)c2)nc1C1CCN(c2ncnc(N)c2-c2cnc(N)nc2)CC1` [Compound 28, 6′-{4-[4-(4-Fluoro-3-trifluoromethyl-phenyl)-1-methyl-1H-imidazol-2-yl]-piperidin-1-yl}-[5,5]bipyrimidinyl-2,4′-diamine], 4.4 nM. In the case of `COc1cccc(-c2c(N)ncnc2N2CCC(c3nc(-c4ccc(F)c(C(F)(F)F)c4)cn3C)CC2)c1` [Compound 29, 6-{4-[4-(4-Fluoro-3-trifluoromethyl-phenyl)-1-methyl-1H-imidazol-2-yl]-piperidin-1-yl}-5-(3-methoxyphenyl)-pyrimidin-4-ylamine], the IC50 was found to be 9.8 nM. For the molecule `Cn1cc(-c2ccc(F)c(C(F)(F)F)c2)nc1C1CCN(c2ncnc(N)c2-c2ccc(F)c(F)c2)CC1` [Compound 30, 5-(3,4-Difluoro-phenyl)-6-{4-[4-(4-fluoro-3-trifluoromethyl-phenyl)-1-methyl-1H-imidazol-2-yl]-piperidin-1-yl}-pyrimidin-4-ylamine], the IC50 turned out to be 6.3 nM. For `CN(C)c1ncc(-c2c(N)ncnc2N2CCC(c3nc(-c4ccc(F)c(C(F)(F)F)c4)cn3C)CC2)cn1` [Compound 31, 6′-{4-[4-(4-Fluoro-3-trifluoromethyl-phenyl)-1-methyl-1H-imidazol-2-yl]-piperidin-1-yl}-N2,N2-dimethyl-[5,5]bipyrimidinyl-2,4′-diamine] the value was 7.5 nM; for `Cn1cc(-c2ccc(F)c(C(F)(F)F)c2)nc1C1CCN(c2ncnc(N)c2-c2ccc(CN)cc2)CC1` [Compound 32, 5-(4-Aminomethyl-phenyl)-6-{4-[4-(4-fluoro-3-trifluoromethyl-phenyl)-1-methyl-1H-imidazol-2-yl]-piperidin-1-yl}-pyrimidin-4-ylamine], 4.2 nM. For `COc1ccc(-c2c(N)ncnc2N2CCC(c3nc(-c4cccc(C(F)(F)F)c4)c[nH]3)CC2)cc1` [Compound 33, 5-(4-Methoxy-phenyl)-6-{4-[4-(3-trifluoromethyl-phenyl)-1H-imidazol-2-yl]-piperidin-1-yl}-pyrimidin-4-ylamine] the value was 2.7 nM; for `COc1ccc(-c2cncnc2N2CCC(c3nc(-c4cccc(C(F)(F)F)c4)c[nH]3)CC2)cc1` [Compound 34, 5-(4-Methoxy-phenyl)-4-{4-[4-(3-trifluoromethyl-phenyl)-1H-imidazol-2-yl]-piperidin-1-yl}-pyrimidine], 12 nM; for `COc1ccc(-c2cnccc2N2CCC(c3nc(-c4cccc(C(F)(F)F)c4)c[nH]3)CC2)cc1` [Compound 35, 3-(4-methoxyphenyl)-4-(4-{4-[3-(trifluoromethyl)phenyl]-1H-imidazol-2-yl}piperidin-1-yl)pyridine], 9 nM. Turning to `Cn1cc(-c2ccc(F)c(C(F)(F)F)c2)nc1C1CCN(c2ncncc2-c2ccc(F)cc2)CC1` [Compound 42, 5-(4-Fluoro-phenyl)-4-{4-[4-(4-fluoro-3-trifluoromethyl-phenyl)-1-methyl-1H-imidazol-2-yl]-piperidin-1-yl}-pyrimidine], the IC50 came to 5.4 nM.

With `COC(=O)/C=C/c1c(N)ncnc1N1CCC(c2nc(-c3ccc(F)c(C(F)(F)F)c3)cn2C)CC1` [Compound 45, (E)-3-(4-Amino-6-{4-[4-(4-fluoro-3-trifluoromethyl-phenyl)-1-methyl-1H-imidazol-2-yl]-piperidin-1-yl}-pyrimidin-5-yl)-acrylic acid methyl ester], the IC50 was found to be 3.5 nM.

As for `Cn1cc(-c2ccc(F)c(C(F)(F)F)c2)nc1C1CCN(c2ncnc(N)c2/C=C/C(N)=O)CC1` [Compound 46, (E)-3-(4-Amino-6-{4-[4-(4-fluoro-3-trifluoromethyl-phenyl)-1-methyl-1H-imidazol-2-yl]-piperidin-1-yl}-pyrimidin-5-yl)-acrylamide], the IC50 is 14 nM. In the case of `COc1cncc(-c2c(N)ncnc2N2CCC(c3nc(-c4ccc(F)c(C(F)(F)F)c4)cn3C)CC2)c1` [Compound 47, 6-{4-[4-(4-Fluoro-3-trifluoromethyl-phenyl)-1-methyl-1H-imidazol-2-yl]-piperidin-1-yl}-5-(5-methoxy-pyridin-3-yl)-pyrimidin-4-ylamine], the IC50 is 4.3 nM.

For the molecule `Cn1cc(-c2ccc(F)c(C(F)(F)F)c2)nc1C1CCN(c2ncnc(N)c2-c2ccc(Cl)nc2)CC1` [Compound 50, 5-(6-Chloro-pyridin-3-yl)-6-{4-[4-(4-fluoro-3-trifluoromethyl-phenyl)-1-methyl-1H-imidazol-2-yl]-piperidin-1-yl}-pyrimidin-4-ylamine], the IC50 was determined as 4.5 nM. For `Cn1cc(-c2ccc(F)c(C(F)(F)F)c2)nc1C1CCN(c2ncnc(N)c2-c2cccc(Cl)c2)CC1` [Compound 51, 5-(3-Chloro-phenyl)-6-{4-[4-(4-fluoro-3-trifluoromethyl-phenyl)-1-methyl-1H-imidazol-2-yl]-piperidin-1-yl}-pyrimidin-4-ylamine], the IC50 amounted to 22 nM. As to `Cn1cc(-c2ccc(F)c(C(F)(F)F)c2)nc1C1CCN(c2ncnc(N)c2-c2ccc(C#N)c(F)c2)CC1` [Compound 52, 4-(4-Amino-6-{4-[4-(4-fluoro-3-trifluoromethyl-phenyl)-1-methyl-1H-imidazol-2-yl]-piperidin-1-yl}-pyrimidin-5-yl)-2-fluoro-benzonitrile], the IC50 amounted to 5 nM. As to `CCc1c(N)ncnc1N1CCC(c2nc(-c3ccnc(C(F)(F)F)c3)cn2CCNC)CC1` [Compound 171, 5-ethyl-6-(4-(1-(2-(methylamino)ethyl)-4-(2-(trifluoromethyl)pyridin-4-yl)-1H-imidazol-2-yl)piperidin-1-yl)pyrimidin-4-amine], the IC50 was 0.6 nM. Turning to `CCOc1c(N)ncnc1N1CCC(c2nc(-c3ccc(F)c(Cl)c3)cn2CCN2CCCC2)CC1` [Compound 289], the IC50 was determined as 0.8 nM.

Source of the values: US9145392B2, “Imidazole amines as modulators of kinase activity” (Merck Patent GmbH, priority 2011, dated 2015).
